Experimental findings from PubChem BioAssay (NCI) are described below.

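All cell lines were grown in 96-well plates and treated with compound for 48 hours. At the TGI there is no net growth.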

Test in all cases: NCI tumour cell line growth inhibition, 48 h
Test [1] has as its system MDA-MB-435.
In test [2] the test system is UACC-257 melanoma.
Test [3] deals with ACHN renal.
The test system of test [4] is SW-620 colon.
Test [5] deals with SF-539 CNS.
Test [6] has as its system NCI-H460 lung.

With `O=C(CNc1ccccn1)Nn1cnc2ccc(S(=O)(=O)Nc3ccccn3)cc2c1=O`, the TGI in test [1], in test [2], in test [3], in test [4], in test [5] and in test [6] was more than 100 µM each time.

In the case of `O=c1[nH]/c(=C/c2ccc3c(c2)OCO3)c(=O)[nH]/c1=C/c1ccc2c(c1)OCO2`, the TGI in test [1], in test [2], in test [3], in test [4], in test [5] and in test [6] was more than 10 µM each time.

For the compound `CC(C)OC(=O)c1ccc(NCc2cc(O)ccc2O)cc1`, the TGI in test [1] is 12.9 µM; in test [2], 26.2 µM; in test [3] it was 13.5 µM; in test [4], 17.7 µM; in test [5], 3.34 µM; in test [6], more than 100 µM.

As to `CC(C)(C)OC(=O)NC1CCCC1C(=O)C1=CCCC1` (centres undefined), the TGI in test [1], in test [2], in test [3], in test [4] and in test [6] was more than 100 µM in each case.

Turning to `O=c1[nH]nc(Cc2ccccc2)n1/N=C/c1cccs1`, the TGI in test [1], in test [2], in test [3], in test [4], in test [5] and in test [6] was more than 100 µM each time.

On to `Cc1cccc(C2ON=C(c3ccccc3)N2C23CC4CC(CC(C4)C2)C3)c1` (centres undefined), for which the TGI in test [1], in test [2], in test [3], in test [4], in test [5] and in test [6] was more than 10 µM each time.

As for `CC(=O)OI1NC(=O)c2ccccc21`, the TGI in test [1], in test [3] and in test [4] was more than 100 µM in each case.

As for `Clc1ccc(Cl)c(N=Nc2cc3c4c(c2)CCN4CCC3)c1`, the TGI in test [1], in test [2], in test [3], in test [4], in test [5] and in test [6] was more than 10 µM each time.

Regarding `CSc1nc(=S)[nH]c2c1c(C)nn2-c1ccccc1`, the TGI was more than 100 µM in test [1]; 51.9 µM in test [2]; 57.5 µM in test [3]; more than 100 µM in test [4]; 98.2 µM in test [5]; 58.9 µM in test [6].

Turning to `Brc1ccc(C2C3CSc4ccccc4C3=NN2c2ccccc2)cc1` (centres undefined), the TGI in test [1] was more than 100 µM; in test [2], 95.6 µM; in test [4], more than 100 µM; in test [5], more than 100 µM; in test [6], more than 100 µM.

On to `Nc1nc(NNc2cccc(F)c2)cc(=O)[nH]1`, for which the TGI is 64.9 µM in test [1]; more than 100 µM in test [2]; more than 100 µM in test [3]; more than 100 µM in test [4]; more than 100 µM in test [5]; more than 100 µM in test [6].

With `CCS(=O)C(=O)N(O)c1ccc(Cl)cc1` (centres undefined), the TGI in test [1] was 30 µM; in test [2] it was 75.8 µM; in test [3], 55 µM; in test [4], 46 µM; in test [5], 52.8 µM.

With `COC(=O)c1ccc2c(c1)CC1(C2)Cc2cc3c(cc2C1)CCC3`, the TGI in test [1], in test [2], in test [3], in test [4], in test [5] and in test [6] was more than 100 µM throughout.

As to `CSc1ncnc2c1cnn2Cc1cnnn1COCC(O)CO` (centres undefined), the TGI in test [1], in test [2], in test [3], in test [4] and in test [5] was more than 100 µM in each case.

As to `O=C1N=C2SC=C(NC(=S)Nc3ccccc3)N2NC12c1ccccc1-c1ccccc12`, the TGI in test [1], in test [2], in test [3], in test [4], in test [5] and in test [6] was more than 10 µM each time.

For the compound `C[C@]12C=CC(=O)C=C1CC[C@@H]1[C@@H]2CC[C@@]2(C)[C@H]1CC[C@]2(O)C(N)=O`, the TGI in test [1], in test [2], in test [3], in test [4], in test [5] and in test [6] was more than 100 µM each time.

As to `C=CCCC1(O)C(O)C(CO)O[C@H](O[C@@]2(CO)OC(CO)C(O)C2O)C1O` (some centres undefined), the TGI in test [1], in test [2], in test [3], in test [4], in test [5] and in test [6] was more than 100 µM each time.

Turning to `CC1(C)CCN2C(=O)C34CCCC3CC21S4` (centres undefined), the TGI in test [1], in test [2], in test [3], in test [4] and in test [5] was more than 100 µM throughout.

Consider `O=C1Oc2ccccc2C1C/C(=N\Nc1ccccc1)c1ccccc1O` (centres undefined), for which the TGI in test [1] was 76.2 µM; in test [2] it was 90.5 µM; in test [3], more than 100 µM; in test [4] it was more than 100 µM; in test [5], more than 100 µM; in test [6] it was more than 100 µM.

Consider `CC(C)C1CNC(=O)C2(C=NC(C(C)C)CNC(=O)C3(C=N1)CCCO3)CCCO2` (centres undefined), for which the TGI in test [1], in test [2], in test [3], in test [4] and in test [5] was more than 10 µM throughout.

As to `O=C(NCCN1CCCCC1)c1ccc(Br)cc1`, the TGI in test [1], in test [2], in test [3], in test [4] and in test [6] was more than 100 µM throughout.

With `CC1=NN(c2nc(N)nc(NS(=O)(=O)c3cc(C)c(Cl)cc3S)n2)C(C)(C)C1`, the TGI in test [2], in test [3], in test [4], in test [5] and in test [6] was more than 10 µM throughout.

As to `FC(F)(F)c1ccccc1C1SCC2=Nc3ccccc3CN21` (centres undefined), the TGI was 93.1 µM in test [1]; 36.6 µM in test [2]; more than 100 µM in test [4]; 22.6 µM in test [5]; 31.8 µM in test [6].

Take `CC1(C)OC(=O)C(C)(C)C(=O)O1`: the TGI in test [2], in test [3], in test [4], in test [5] and in test [6] was more than 100 µM throughout.

On to `COC(=O)C1(NC(=O)C(Cc2ccccc2)N(C(=O)OC(C)(C)C)C(=O)OC(C)(C)C)CCCC1` (centres undefined), for which the TGI in test [1] is more than 100 µM; in test [3] it was more than 10 µM; in test [4] it was more than 100 µM; in test [5], more than 100 µM; in test [6], more than 100 µM.

`CC(CSC(=N)N)C(N)=O` (centres undefined): the TGI in test [1], in test [2], in test [3], in test [4] and in test [6] was more than 100 µM throughout.

Regarding `COc1ccc(C2=Nc3c(nc(OC)[nH]c3=O)NC(c3ccccc3)C2)cc1` (centres undefined), the TGI in test [1] was more than 100 µM; in test [2], more than 100 µM; in test [3] it was 83.5 µM; in test [4], 72.4 µM; in test [5], 94.1 µM.

For the compound `COc1ccc(/C=c2\c(=O)[nH]c3nc4ccccc4c(=O)n23)cc1`, the TGI in test [1], in test [2], in test [3], in test [4] and in test [5] was more than 100 µM each time.

`CCOC(=O)N/N=C(/N)c1cccc(Br)c1`: the TGI in test [2], in test [3], in test [5] and in test [6] was more than 100 µM each time.

For `O=C/C(=C1/C=Cc2cc([N+](=O)[O-])ccc2S1)c1ccccc1`, the TGI in test [1], in test [2], in test [3], in test [5] and in test [6] was more than 100 µM in each case.

In the case of `CO/C(N)=C(\C#N)N=Cc1ccc2ccccc2c1`, the TGI is more than 100 µM in test [1], 91.3 µM in test [2], more than 100 µM in test [3] and more than 100 µM in test [4].

In the case of `Clc1ccc(Nc2nnc(CNc3ccc(-c4nnc(Nc5ccc(Cl)cc5)s4)cc3)s2)cc1`, the TGI in test [1], in test [2], in test [3], in test [4] and in test [6] was more than 100 µM in each case.

On to `CCOC(=O)c1c[nH]c(C(=O)OCC)c1-c1cccn1-c1ccccc1`, for which the TGI in test [1] is more than 100 µM; in test [2], more than 100 µM; in test [3], more than 100 µM; in test [4], more than 100 µM; in test [6] it was 65.5 µM.

For the compound `CN(C)CCN(C)P12(Oc3ccccc3O1)Oc1c(Cl)c(Cl)c(Cl)c(Cl)c1O2`, the TGI in test [1] was more than 100 µM; in test [2], 85.5 µM; in test [3], more than 100 µM; in test [4] it was more than 100 µM; in test [6], more than 100 µM.
